In patent publication US11319299B2, “Substituted carboxamides as inhibitors of WDR5 protein-protein binding” (PROPELLON THERAPEUTICS INC., priority 2016, dated 2022) one finds Kd data, which are given here for 17 molecules.

Molecules are shown by their SMILES. pKd: −log10 of the molar value.

The experiment has as its target WDR5 (Homo sapiens (Human), UniProt P61964). Briefly: Surface Plasmon Resonance (SPR) assay, KD and residence time. Particulars: surface plasmon resonance (SPR) assay; read-out: WDR5 binding affinity (KD). It is filed as binding. In general terms: In SPR one partner is held on a chip, and binding of the other changes the refractive index at the surface.
`C[C@@H]1CN(c2cc(F)c(C3=CCN(C(=O)OC(C)(C)C)C3)cc2NC(=O)c2cn(C)c(=O)cc2C(F)(F)F)C[C@H](C)N1C` [Example 326, tert-butyl 3-[2-fluoro-5-[[-methyl-6-oxo-4-(trifluoromethyl)pyridine-3-carbonyl]amino]-4-[(3R,5S)-3,4,5-trimethylpiperazin-1-yl]phenyl]-2,5-dihydropyrrole-1-carboxylate]: the pKd was 8.52.

With `C[C@@H]1CN(c2cc(F)c(C3=CCNC3)cc2NC(=O)c2c[nH]c(=O)cc2C(F)(F)F)C[C@H](C)N1C` [Example 329, N-[5-(2,5-dihydro-1H-pyrrol-3-yl)-4-fluoro-2-[(3R,5S)-3,4,5-trimethylpiperazin-1-yl]phenyl]-6-oxo-4-(trifluoromethyl)-1H-pyridine-3-carboxamide], the pKd was 8.39.

On to `C[C@@H]1CN(c2cc(F)c(C3=CC4CCC(C3)N4)cc2NC(=O)c2c[nH]c(=O)cc2C(F)(F)F)C[C@H](C)N1C` (stereo partly drawn) [Example 330, N-[5-(8-azabicyclo[3.2.1]oct-2-en-3-yl)-4-fluoro-2-[(3R,5S)-3,4,5-trimethylpiperazin-1-yl]phenyl]-6-oxo-4-(trifluoromethyl)-1H-pyridine-3-carboxamide], for which the pKd was 8.24.

Take `C[C@@H]1CN(c2cc(F)c(C3=CCN(c4ncccn4)C3)cc2NC(=O)c2c[nH]c(=O)cc2C(F)(F)F)C[C@H](C)N1C` [Example 335, N-[4-fluoro-5-(1-pyrimidin-2-yl-2,5-dihydropyrrol-3-yl)-2-[(3R,5S)-3,4,5-trimethylpiperazin-1-yl]phenyl]-6-oxo-4-(trifluoromethyl)-1H-pyridine-3-carboxamide]: the pKd was 8.59.

Regarding `C[C@@H]1CN(c2cc(F)c(C3=CC4CCC(C3)N4c3ncccn3)cc2NC(=O)c2c[nH]c(=O)cc2C(F)(F)F)C[C@H](C)N1C` (stereo partly drawn) [Example 336, N-[4-fluoro-5-(8-pyrimidin-2-yl-8-azabicyclo[3.2.1]oct-2-en-3-yl)-2-[(3R,5S)-3,4,5-trimethylpiperazin-1-yl]phenyl]-6-oxo-4-(trifluoromethyl)-1H-pyridine-3-carboxamide], the pKd was 7.90.

Take `C[C@@H]1CN(c2cc(F)c(C3CN=C(N4CCOCC4)NC3)cc2NC(=O)c2c[nH]c(=O)cc2C(F)(F)F)C[C@H](C)N1C` (stereo partly drawn) [Example 339, N-[4-fluoro-5-(2-morpholin-4-yl-1,4,5,6-tetrahydropyrimidin-5-yl)-2-[(3R,5S)-3,4,5-trimethylpiperazin-1-yl]phenyl]-6-oxo-4-(trifluoromethyl)-1H-pyridine-3-carboxamide]: the pKd was 6.56.

`C[C@@H]1CN(c2ncc(-c3cc(NC(=O)c4c[nH]c(=O)cc4C(F)(F)F)c(N4CCN(C)[C@@H](C)C4)cc3F)cn2)CCO1` [Example 340, N-[4-fluoro-2-[(3S)-3,4-dimethylpiperazin-1-yl]-5-[2-[(2R)-2-methylmorpholin-4-yl]pyrimidin-5-yl]phenyl]-6-oxo-4-(trifluoromethyl)-1H-pyridine-3-carboxamide]: the pKd is 9.26.

Turning to `C[C@@H]1CN(c2cc(F)c(-c3cnc(N4CCOCC4)nc3)cc2NC(=O)c2cn(C)c(=O)cc2C(F)F)C[C@H](C)N1C` [Example 342, 4-(difluoromethyl)-N-[4-fluoro-5-(2-morpholin-4-ylpyrimidin-5-yl)-2-[(3R,5S)-3,4,5-trimethylpiperazin-1-yl]phenyl]-1-methyl-6-oxopyridine-3-carboxamide], the pKd is 8.16.

For the molecule `CCN(C)[C@@H]1CN(c2cc(F)c(-c3cnc(N4CCOCC4)nc3)cc2NC(=O)c2c[nH]c(=O)cc2C(F)(F)F)C[C@H]1F` [Example 344, N-[4-fluoro-5-(2-morpholin-4-ylpyrimidin-5-yl)-2-[(3R,4R)-3-[ethyl(methyl)amino]-4-fluoropyrrolidin-1-yl]phenyl]-6-oxo-4-(trifluoromethyl)-1H-pyridine-3-carboxamide], the pKd is 7.91.

In the case of `CCN(C)[C@@H]1CCN(c2cc(F)c(-c3cnc(N4CCOCC4)nc3)cc2NC(=O)c2c[nH]c(=O)cc2C(F)(F)F)C1` [Example 345, N-[4-fluoro-5-(2-morpholin-4-ylpyrimidin-5-yl)-2-[(3R)-3-[ethyl(methyl)amino]pyrrolidin-1-yl]phenyl]-6-oxo-4-(trifluoromethyl)-1H-pyridine-3-carboxamide], the pKd is 8.92.

On to `C[C@@H]1CN(c2cc(F)c(-c3cnc(N4CCOC(C)(C)C4)nc3)cc2NC(=O)c2c[nH]c(=O)cc2C(F)(F)F)C[C@H](C)N1C` [Example 350, N-[5-[2-(2,2-dimethylmorpholin-4-yl)pyrimidin-5-yl]-4-fluoro-2-[(3R,5S)-3,4,5-trimethylpiperazin-1-yl]phenyl]-6-oxo-4-(trifluoromethyl)-1H-pyridine-3-carboxamide], for which the pKd was 8.85.

Take `C[C@@H]1CN(c2cc(F)c(-c3cnc(N4C5CCC4CC5)nc3)cc2NC(=O)c2c[nH]c(=O)cc2C(F)(F)F)C[C@H](C)N1C` [Example 352, N-[5-[2-(7-azabicyclo[2.2.1]heptan-7-yl)pyrimidin-5-yl]-4-fluoro-2-[(3R,5S)-3,4,5-trimethylpiperazin-1-yl]phenyl]-6-oxo-4-(trifluoromethyl)-1H-pyridine-3-carboxamide]: the pKd was 8.56.

Regarding `C[C@@H]1CN(c2cc(F)c(-c3cnc(N4CCOCC4)nc3)cc2NC(=O)c2ccc(F)cc2C(F)(F)F)C[C@H](C)N1` [Example 364, 4-fluoro-N-[4-fluoro-5-(2-morpholin-4-ylpyrimidin-5-yl)-2-[(3R,5S)-3,5-dimethylpiperazin-1-yl]phenyl]-2-(trifluoromethyl)benzamide], the pKd was 8.23.

Take `COc1cc(N2CCC=C(c3cc(NC(=O)c4c[nH]c(=O)cc4C(F)(F)F)c(N4C[C@@H](C)N(C)[C@@H](C)C4)cc3F)C2)ncn1` [Example 365, N-[4-fluoro-5-[1-(6-methoxypyrimidin-4-yl)-3,6-dihydro-2H-pyridin-5-yl]-2-[(3R,5S)-3,4,5-trimethylpiperazin-1-yl]phenyl]-6-oxo-4-(trifluoromethyl)-1H-pyridine-3-carboxamide]: the pKd is 9.61.

As for `COc1cnc(N2CC=C(c3cc(NC(=O)c4c[nH]c(=O)cc4C(F)(F)F)c(N4C[C@@H](C)N(C)[C@@H](C)C4)cc3F)CC2)nc1` [Example 366, N-[4-fluoro-5-[1-(5-methoxypyrimidin-2-yl)-3,6-dihydro-2H-pyridin-4-yl]-2-[(3R,5S)-3,4,5-trimethylpiperazin-1-yl]phenyl]-6-oxo-4-(trifluoromethyl)-1H-pyridine-3-carboxamide], the pKd is 8.75.

In the case of `C[C@@H]1CN(c2cc(F)c(C3=CCN(c4ncc(F)cn4)CC3)cc2NC(=O)c2c[nH]c(=O)cc2C(F)(F)F)C[C@H](C)N1C` [Example 367, N-[4-fluoro-5-[1-(5-fluoropyrimidin-2-yl)-3,6-dihydro-2H-pyridin-4-yl]-2-[(3R,5S)-3,4,5-trimethylpiperazin-1-yl]phenyl]-6-oxo-4-(trifluoromethyl)-1H-pyridine-3-carboxamide], the pKd is 8.98.

As for `Cc1cc(C)nc(N2CC=C(c3cc(NC(=O)c4c[nH]c(=O)cc4C(F)(F)F)c(N4C[C@@H](C)N(C)[C@@H](C)C4)cc3F)CC2)n1` [Example 368, N-[5-[1-(4,6-dimethylpyrimidin-2-yl)-3,6-dihydro-2H-pyridin-4-yl]-4-fluoro-2-[(3R,5S)-3,4,5-trimethylpiperazin-1-yl]phenyl]-6-oxo-4-(trifluoromethyl)-1H-pyridine-3-carboxamide], the pKd is 8.64.

Broadly, the pKd is −log10 of the Kd, conventionally taken in molar units.
